According to PubChem BioAssay (NCI):
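Compound exposure: 48 hours, 5 concentrations, 96-well plates. Abbreviation: GI50, concentration required for 50% inhibition of growth. TGI marks complete inhibition of growth.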

What was measured:
Assay in all cases: growth of human tumour cells (NCI), 48 h
CCRF-CEM leukemia = tested on: CCRF-CEM leukemia
HCT-116 colon = tested on: HCT-116 colon
SF-295 CNS = tested on: SF-295 CNS
NCI-H226 lung = tested on: NCI-H226 lung
NCI-H522 lung = tested on: NCI-H522 lung
HL-60(TB) leukemia = tested on: HL-60(TB) leukemia
SW-620 colon = tested on: SW-620 colon
MDA-MB-231 breast = tested on: MDA-MB-231 breast
SK-MEL-5 melanoma = tested on: SK-MEL-5 melanoma
TK-10 renal = tested on: TK-10 renal
MDA-N = tested on: MDA-N

| SMILES | TGI (CCRF-CEM leukemia) | TGI (HCT-116 colon) | TGI (SF-295 CNS) | TGI (NCI-H226 lung) | TGI (NCI-H522 lung) | TGI (HL-60(TB) leukemia) | TGI (SW-620 colon) | TGI (MDA-MB-231 breast) | TGI (SK-MEL-5 melanoma) | TGI (TK-10 renal) | TGI (MDA-N) | GI50 (TK-10 renal) | GI50 (HCT-116 colon) | GI50 (SF-295 CNS) | GI50 (MDA-MB-231 breast) | GI50 (SK-MEL-5 melanoma) | GI50 (NCI-H226 lung) | GI50 (HL-60(TB) leukemia) | GI50 (SW-620 colon) |
| --- | --- | --- | --- | --- | --- | --- | --- | --- | --- | --- | --- | --- | --- | --- | --- | --- | --- | --- | --- |
| CCOc1ccc(N=Nc2ccc(-c3ccc(N=Nc4c(O)ccc5cc(S(=O)(=O)O)cc(S(=O)(=O)O)c45)cc3)cc2)cc1 | > 100 µM | > 100 µM | > 100 µM | > 100 µM | > 100 µM | > 100 µM | > 100 µM | > 100 µM | > 100 µM | > 100 µM | – | – | – | – | – | – | – | – | – |
| C[N+]1(C)C/C(=C\c2ccc(O)cc2)C(=O)/C(=C/c2ccc(O)cc2)C1 | > 100 µM | > 100 µM | > 100 µM | – | > 100 µM | > 100 µM | > 100 µM | – | > 100 µM | > 100 µM | – | – | – | – | – | – | – | – | – |
| CC1(Cc2cc3c(cc2C2(c4ccc([N+](=O)[O-])cc4)OCCO2)OCO3)OCCO1 | > 100 µM | > 100 µM | > 100 µM | > 100 µM | 82.3 µM | > 100 µM | > 100 µM | > 100 µM | > 100 µM | > 100 µM | > 100 µM | – | – | – | – | – | – | – | – |
| O=C(CSc1nc2ccc(I)cc2c(=O)n1Cc1ccccc1)NN1C(=O)CSC1c1ccccc1 (configuration not stated) | > 100 µM | 56.1 µM | 76 µM | > 100 µM | 35.5 µM | 58.9 µM | > 100 µM | 65.6 µM | 42.6 µM | 86 µM | > 100 µM | – | – | – | – | – | – | – | – |
| CC(=O)c1c(C)cc2cccc(OC3OC(CO)C(O)C(O)C3O)c2c1O (configuration not stated) (tested in a mixture with another compound) | > 100 µM | > 100 µM | > 100 µM | > 100 µM | > 100 µM | > 100 µM | > 100 µM | > 100 µM | > 100 µM | > 100 µM | > 100 µM | – | – | – | – | – | – | – | – |
| O=C(/C=C/c1ccc(O)cc1)c1cc(-c2cc(CCC(=O)c3ccc(O)cc3O)ccc2O)c(O)cc1O | 43.6 µM | > 50 µM | > 50 µM | – | > 50 µM | > 50 µM | > 50 µM | > 50 µM | > 50 µM | > 50 µM | > 50 µM | – | – | – | – | – | – | – | – |
| O=C1O/C(=C\C=C\CO)C=C1/C=C/CO | 60.3 µM | 29.9 µM | > 100 µM | 95.8 µM | 22.5 µM | 54.7 µM | 45.9 µM | 52.8 µM | 46 µM | 41 µM | 59.9 µM | – | – | – | – | – | – | – | – |
| O=S(=O)([O-])[O-].[Fe+2].[OH2+]c1c(Cl)cc(Cl)cc1/C=N/Nc1ccccn1 | – | 2.63 µM | 3.45 µM | 4.41 µM | 1.92 µM | 2.92 µM | 3.49 µM | – | 15.1 µM | 2.33 µM | – | 1.01 µM | – | – | – | – | – | – | – |
| Cc1cc(C)nc(NS(=O)(=O)c2ccc(Nc3nnc(/C=C/c4c(O)ccc5ccccc45)c(=O)n3N)cc2)n1 | > 100 µM | 42 µM | > 100 µM | – | – | 66.8 µM | > 100 µM | – | – | – | 81.6 µM | – | – | – | – | – | – | – | – |
| COc1cc(O)c2c(=O)c(OC)c(-c3ccc(OC)c(OC)c3)oc2c1.[Zn+2] | – | > 100 µM | 35.9 µM | > 100 µM | 24.1 µM | > 100 µM | > 100 µM | 65.4 µM | > 100 µM | > 100 µM | > 100 µM | – | 22.6 µM | 5.57 µM | 3.83 µM | 17.6 µM | – | – | – |
| Nc1ccc(S(=O)(=O)NCCS(=O)(=O)O)cc1 | > 100 µM | > 100 µM | > 100 µM | > 100 µM | > 100 µM | > 100 µM | > 100 µM | > 100 µM | > 100 µM | > 100 µM | > 100 µM | – | – | – | – | – | – | – | – |
| CC(=O)[C@]12OC(=O)C3=C1[C@H](CC[C@@H]3C)[C@@H](C)C[C@H]2C=C(C)C | 22.6 µM | 13.4 µM | 12.8 µM | 16 µM | 11.4 µM | 16 µM | 15.3 µM | 15.6 µM | 11.8 µM | – | 16.9 µM | – | – | – | – | – | – | – | – |
| O=C(c1ccc(Cl)c(Cl)c1)N(C(=O)N1CCN(c2ccccc2)CC1)S(=O)(=O)c1ccccc1 | > 100 µM | 86.8 µM | > 100 µM | 87.9 µM | 39.7 µM | > 100 µM | > 100 µM | > 100 µM | 84.7 µM | > 100 µM | 62.8 µM | – | – | – | – | – | – | – | – |
| Cc1c(-c2ccccc2)c(C#N)c2nnn(C)c(=O)n12 | > 100 µM | > 100 µM | > 100 µM | > 100 µM | > 100 µM | > 100 µM | > 100 µM | > 100 µM | > 100 µM | > 100 µM | > 100 µM | – | – | – | – | – | – | – | – |
| CC(=O)Oc1cc(/C=C/c2ccc(O)cc2)cc(OC(C)=O)c1 | – | > 100 µM | > 100 µM | 86.9 µM | > 100 µM | > 100 µM | > 100 µM | > 100 µM | > 100 µM | > 100 µM | – | – | – | – | – | – | – | – | – |
| CCCCCCCCc1ccc(CCC(N)(CO)CO)cc1 | – | – | 3.93 µM | 3.42 µM | – | 3.03 µM | 3.08 µM | 1.98 µM | 2.98 µM | 3.58 µM | – | 1.89 µM | – | 1.98 µM | 0.521 µM | 1.62 µM | 1.77 µM | 1.32 µM | 1.64 µM |
| CC(=O)C(N=NC1CCC(S(=O)(=O)NB2N=CS2)CC1)C(=O)Nc1ccccc1C (configuration not stated) | > 100 µM | 26.3 µM | 35.1 µM | 31.4 µM | 29.6 µM | > 100 µM | 30 µM | – | 26.9 µM | 58.6 µM | – | – | – | – | – | – | – | – | – |
| Cc1ccccc1C1CC(=O)CC(c2ccccc2C)C12C(=O)NC(=S)NC2=O (configuration not stated) | 70.4 µM | 49 µM | > 100 µM | 44.2 µM | – | 59.2 µM | 90.4 µM | 90.1 µM | 32.7 µM | > 100 µM | > 100 µM | – | – | – | – | – | – | – | – |
| NC(=S)N/N=C1\CC(c2ccccc2)Nc2ccccc21 (configuration not stated) | > 100 µM | – | > 100 µM | > 100 µM | 99.2 µM | 31.3 µM | > 100 µM | – | 50.9 µM | > 100 µM | – | – | – | – | – | – | – | – | – |
| C[N+]1(c2ccccc2)C=C(c2ccccc2)SC1=S (configuration not stated) | – | > 100 µM | > 100 µM | > 100 µM | > 100 µM | > 100 µM | > 100 µM | > 100 µM | > 100 µM | > 100 µM | – | – | – | – | – | – | – | – | – |
| Cc1ncc(COP(=O)(O)O)c(C)c1O | – | > 100 µM | > 100 µM | > 100 µM | > 100 µM | > 100 µM | > 100 µM | > 100 µM | > 100 µM | > 100 µM | > 100 µM | – | – | – | – | – | – | – | – |
| CC(C)=CC[C@H]1C[C@@]2(CC=C(C)C)C(=O)/C(=C(/O)c3ccccc3)C(=O)[C@](CC=C(C)C)(C2=O)C1(C)C | – | 14.5 µM | 17.8 µM | 36.2 µM | 32.5 µM | – | 54.9 µM | 22.3 µM | 17.8 µM | 20.6 µM | 20.1 µM | – | – | – | – | – | – | – | – |
